Assay results as given in patent US20090053306A1, “Pharmaceutical Compositions of a 5-HT2A Serotonin Receptor Modulator Useful for the Treatment of Disorders Related Thereto” (priority 2005, published 2009).
≈ marks a conversion by molar mass, not a printed value. Where two headings read alike, the source gives them in different places.

Columns and labels:
[1] = Solubility determination in selected excipients (HPLC); assay type: physicochemical; settings: thermodynamic from solid
Description: The vial contents were mixed for 30 seconds using a VWR mini vortexter followed by sonication (Branson 1510) for 1 minutes. Vials were placed into a constant temperature bath (i.e., about 25° C.) and allowed to equilibrate for no less than 12 hours. The resulting suspensions were transferred to eppendorf tubes each equipped with a 0.2 μm nylon filter (Costar 8168) and were centrifuged for 10 minutes at 14,000 rpms. The supernatant from each eppendorf tube was collected and diluted with HPLC grade acetonitrile or methonal with appropriate dilution factor. Each solution was analyzed by an HPLC method.
As an example, the following HPLC assay was used to determine the aqueous solubility of 1-[3-(4-bromo-2-methyl-2H-pyrazol-3-yl)-4-methoxy-phenyl]-3-(2,4-difluoro-phenyl)-urea:
HPLC System: Waters 2795; Stationary phase: Xterra® column, MS C18, 3.5 μm, 4.6×50 mm; Mobile phase: Line A: 100% De-ionized-Millipore water; Line B: 1.0% NH4OH; Line C: 100% HPLC grade Acetonitrile; Gradient: A: 80% to 0% in 8 minute; B: 10% constant in 8 minute; C: 10% to 90% in 8 minute; Flow rate: 1.50 mL/min; Column temperature: 40° C.±5° C.; Sample temperature: 25° C.±5° C.
Photodiode Array Detector: Waters 2996 with UV lamp: 3D data collection; Start wavelength: 210 nm; end wavelength: 320 nm.
Processing wavelength: 220 nm.
Quantification was effected by comparison of the HPLC peak area for each test solution with the peak area taken from a standard plot of concentration versus peak area for standards of known concentration. As is conventional, the standard concentrations for 1-[3-(4-bromo-2-methyl-2H-pyrazol-3-yl)-4-methoxy-phenyl]-3-(2,4-difluoro-phenyl)-urea were selected to fall within a linear range of concentration versus absorbance for the UV detector employed. The standard concentration for 1-[3-(4-bromo-2-methyl-2H-pyrazol-3-yl)-4-methoxy-phenyl]-3-(2,4-difluoro-phenyl)-urea was diluted in serial fashion to obtain a calibration curve. Dilution was effected by adding the acetonitrile from mobile phase. Each saturated equilibrium solution for 1-[3-(4-bromo-2-methyl-2H-pyrazol-3-yl)-4-methoxy-phenyl]-3-(2,4-difluoro-phenyl)-urea obtained after filtering the test vial solutions was diluted with acetonitrile or methonal with appropriate dilution factor to reach the linear range of the standard plot.

[2] = Plasma pharmacokinetics in healthy male and female volunteers following oral administration of a capsule formulated dose; assay type: in vivo; settings: both sexes, human, capsule with Cremephor RH40
Description: Plasma pharmacokinetics for 1-[3-(4-bromo-2-methyl-2H-pyrazol-3-yl)-4-methoxy-phenyl]-3-(2,4-difluoro-phenyl)-urea were determined in healthy male and female volunteers following oral administration of a capsule formulated dose of 1-[3-(4-bromo-2-methyl-2H-pyrazol-3-yl)-4-methoxy-phenyl]-3-(2,4-difluoro-phenyl)-urea and Cremephor RH40.

[3] = biological target: 5-HT2A serotonin receptor (Homo sapiens, UniProt P28223); settings: cited from earlier work
diabetic rats = settings: cited from earlier work
JC virus = settings: cited from earlier work
5-HT2A = 5-HT2A (Homo sapiens, UniProt P28223); settings: cited from earlier work
[4] = patients, 24 months of treatment; cited from earlier work
[5] = glaucoma patients; cited from earlier work

5-HT2A, sequence (P28223 whole entry): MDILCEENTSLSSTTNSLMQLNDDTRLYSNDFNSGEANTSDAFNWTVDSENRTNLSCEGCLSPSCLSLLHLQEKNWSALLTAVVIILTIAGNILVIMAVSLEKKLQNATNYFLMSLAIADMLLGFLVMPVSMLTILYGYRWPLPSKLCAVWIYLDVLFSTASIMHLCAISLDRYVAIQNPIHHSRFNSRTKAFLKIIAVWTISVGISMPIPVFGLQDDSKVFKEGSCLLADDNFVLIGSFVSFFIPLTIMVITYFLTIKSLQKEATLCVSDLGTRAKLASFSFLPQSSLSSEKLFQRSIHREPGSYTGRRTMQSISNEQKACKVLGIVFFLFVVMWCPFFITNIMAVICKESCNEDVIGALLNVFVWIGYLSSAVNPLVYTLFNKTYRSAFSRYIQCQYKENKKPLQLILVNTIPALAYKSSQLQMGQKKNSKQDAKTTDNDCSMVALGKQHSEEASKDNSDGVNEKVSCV
5-HT2A serotonin receptor, sequence (P28223 whole entry): as above

Q: Which solubility ([1]; 0.01 N HCl, 25 °C, pH 2, simulated gastric fluid, 0.01 N HCl (about pH 2), read-out: aqueous solubility) does the source give for `COc1ccc(NC(=O)Nc2ccc(F)cc2F)cc1-c1c(Br)cnn1C` [1-[3-(4-bromo-2-methyl-2H-pyrazol-3-yl)-4-methoxy-phenyl]-3-(2,4-difluoro-phenyl)-urea] here?
A: ≤ 0.01 mg/mL

Q: What about the solubility ([1]; 0.01 N HCl, 25 °C, pH 2, simulated gastric fluid, at 25° C. in 0.01 N HCl (pH 2), read-out: Solubility) of the same compound?
A: < 0.01 mg/mL

Q: What about the solubility ([1]; 25 mM phosphate buffer, 25 °C, pH 7, aqueous buffer, at 25° C. in 25 mM Phosphate buffer (pH 7), read-out: Solubility) of the same compound?
A: < 0.01 mg/mL

Q: What about the solubility ([1]; 0.05% Tween 80 & 0.5% Methocel, 25 °C, aqueous with cosolvent or surfactant or cyclodextrin, at 25° C. in 0.05% Tween 80 & 0.5% Methocel, read-out: Solubility) of the same compound?
A: < 0.01 mg/mL

Q: And the solubility ([1]; 1% Tween 80, 25 °C, aqueous with cosolvent or surfactant or cyclodextrin, at 25° C. in 1% Tween 80, read-out: Solubility)?
A: 0.4 mg/mL (≈ 0.915 mM)

Q: And the solubility ([1]; 5% Gum Arabic, 25 °C, aqueous with cosolvent or surfactant or cyclodextrin, at 25° C. in 5% Gum Arabic, read-out: Solubility)?
A: < 0.01 mg/mL

Q: And the solubility ([1]; 50% Captisol, 25 °C, aqueous with cosolvent or surfactant or cyclodextrin, at 25° C. in 50% Captisol, read-out: Solubility)?
A: 0.4 mg/mL (≈ 0.915 mM)

Q: What about the solubility ([1]; Cremophor RH 40, 25 °C, organic solvent or mixture, at 25° C. in Cremophor RH 40, read-out: Solubility) of the same compound?
A: 196 mg/mL (≈ 448 mM)

Q: What about the solubility ([1]; Labrafil M 1944 CS, 25 °C, oil or lipid, at 25° C. in Labrafil M 1944 CS, read-out: Solubility) of the same compound?
A: 29.9 mg/mL (≈ 68.4 mM)

Q: And the solubility ([1]; Labrafil M 2125 CS, 25 °C, oil or lipid, at 25° C. in Labrafil M 2125 CS, read-out: Solubility)?
A: 32.7 mg/mL (≈ 74.8 mM)

Q: And the solubility ([1]; Labrasol, 25 °C, oil or lipid, at 25° C. in Labrasol, read-out: Solubility)?
A: 348 mg/mL (≈ 796 mM)

Q: What about the solubility ([1]; PEG 300, 25 °C, organic solvent or mixture, at 25° C. in PEG 300, no suspension observed, read-out: Solubility) of the same compound?
A: > 150 mg/mL

Q: And the solubility ([1]; PEG 400, 25 °C, organic solvent or mixture, at 25° C. in PEG 400, read-out: Solubility)?
A: 377 mg/mL (≈ 861 mM)

Q: What about the solubility ([1]; PEG 600, 25 °C, organic solvent or mixture, at 25° C. in PEG 600, no suspension observed, read-out: Solubility) of the same compound?
A: > 325 mg/mL

Q: What about the solubility ([1]; Softigen 767, 25 °C, oil or lipid, at 25° C. in Softigen 767, no suspension observed, read-out: Solubility) of the same compound?
A: > 200 mg/mL

Q: And the solubility ([1]; Transcutol P, 25 °C, organic solvent or mixture, at 25° C. in Transcutol P, no suspension observed, read-out: Solubility)?
A: > 200 mg/mL

Q: What about the solubility ([1]; Tween 20, 25 °C, organic solvent or mixture, at 25° C. in Tween 20, no suspension observed, read-out: Solubility) of the same compound?
A: > 160 mg/mL

Q: What about the solubility ([1]; Tween 80, 25 °C, organic solvent or mixture, at 25° C. in Tween 80, read-out: Solubility) of the same compound?
A: 320 mg/mL (≈ 732 mM)

Q: What about the solubility ([1]; deionized water, 25 °C, water, at 25° C. in Deionized water, read-out: Solubility) of the same compound?
A: < 0.01 mg/mL

Q: And the solubility ([1]; deionized water, 25 °C, water, deionized water, read-out: aqueous solubility)?
A: ≤ 0.01 mg/mL

Q: And the solubility ([1]; phosphate buffer, 25 °C, pH 7, aqueous buffer, phosphate buffer (about pH 7), read-out: aqueous solubility)?
A: ≤ 0.01 mg/mL

Q: And the solubility ([1]; saline (0.9% NaCl solution), 25 °C, saline or isotonic, at 25° C. in Saline (0.9% NaCl solution), read-out: Solubility)?
A: < 0.01 mg/mL

Q: And the solubility ([1]; saline (about 0.9% NaCl solution), 25 °C, saline or isotonic, saline (about 0.9% NaCl solution), read-out: aqueous solubility)?
A: ≤ 0.01 mg/mL

Q: What about the AUC(0-inf) ([2]; single oral dose 10 mg) of the same compound?
A: 51 ng·h/mL

Q: What about the Cmax ([2]; single oral dose 10 mg) of the same compound?
A: 18 ng/mL

Q: And the Tmax ([2]; single oral dose 10 mg)?
A: 1.2 h

Q: And the AUC(0-inf) ([2]; single oral dose 20 mg)?
A: 181 ng·h/mL

Q: What about the Cmax ([2]; single oral dose 20 mg) of the same compound?
A: 58 ng/mL

Q: What about the Tmax ([2]; single oral dose 20 mg) of the same compound?
A: 1.2 h

Q: And the AUC(0-inf) ([2]; single oral dose 40 mg)?
A: 395 ng·h/mL

Q: And the Cmax ([2]; single oral dose 40 mg)?
A: 113 ng/mL

Q: What about the Tmax ([2]; single oral dose 40 mg) of the same compound?
A: 1.5 h

Q: And the AUC(0-inf) ([2]; single oral dose 80 mg)?
A: 612 ng·h/mL

Q: And the Cmax ([2]; single oral dose 80 mg)?
A: 118 ng/mL

Q: What about the Tmax ([2]; single oral dose 80 mg) of the same compound?
A: 1.2 h

Q: And the AUC(0-inf) ([2]; single oral dose 160 mg)?
A: 739 ng·h/mL

Q: And the Cmax ([2]; single oral dose 160 mg)?
A: 125 ng/mL

Q: And the Tmax ([2]; single oral dose 160 mg)?
A: 1.5 h

Q: What about the “effectiveness as a modulator of the 5-HT2A serotonin receptor” value [3] of the same compound?
A: especially effective as a modulator of the 5-HT2A serotonin receptor

Q: Which results are given for `O=CN1CCC(C(=O)NCCN2CCC(=C3c4ccccc4C=Cc4ccccc43)CC2)CC1` [AT-1015]?
A: 14.9% reduction in saphenous sensory conduction velocity (diabetic rats): completely reversed; 44.7% reduction in sciatic endoneurial blood flow (diabetic rats): completely reversed

Q: For `O=C(c1ccc(F)cc1)C1CCN(CCn2c(=O)[nH]c3ccccc3c2=O)CC1` [ketanserin], which “JC virus infection of human glial cells” value (JC virus) is on record?
A: inhibited JC virus infection

Q: What about the “inverse agonist activity at 5-HT2A” value (5-HT2A) of the same compound?
A: have inverse agonist activity

Q: Which results are given for `Cc1nc2sccn2c(=O)c1CCN1CCC(=C(c2ccc(F)cc2)c2ccc(F)cc2)CC1` [ritanserin]?
A: 14.9% reduction in saphenous sensory conduction velocity (diabetic rats): completely reversed; 44.7% reduction in sciatic endoneurial blood flow (diabetic rats): completely reversed; JC virus infection of human glial cells (JC virus): inhibited JC virus infection; inverse agonist activity at 5-HT2A (5-HT2A): have inverse agonist activity

Q: For `COc1cccc(CCc2ccccc2OCC(CN(C)C)OC(=O)CCC(=O)O)c1` (stereo not drawn) [sarpogrelate], which “14.9% reduction in saphenous sensory conduction velocity” value (diabetic rats) is on record?
A: completely reversed

Q: And the “44.7% reduction in sciatic endoneurial blood flow” value (diabetic rats)?
A: completely reversed

Q: What about the “urinary albumin excretion level” value [4] of the same compound?
A: significantly reduced

Q: What about the IOP [5] of the same compound?
A: significantly lower IOP
